From patent US10597403B2, “Condensed cyclic compound, composition including the condensed cyclic compound, organic light-emitting device including the condensed cyclic compound, and method of manufacturing the organic light-emitting device” (SAMSUNG ELECTRONICS CO., LTD., priority 2015, dated 2020) come the findings set out here.

Data set [1] is described as follows: Measurement of glass transition temperature (Tg), scanning calorimetry, JIS K 7121, SII DSC6220. It is filed as physicochemical. As to conditions: for heat resistance: result in words, from Tg. The method, then:
The glass transition temperature may be measured by a method defined in JIS K 7121 or ISO 3146 corresponding thereto. In the following examples, the glass transition temperature was measured by a scanning calorimetric measurement method.
In an argon atmosphere, 2.20 g (5.52 mmol) of Intermediate a, 3.30 g (4.97 mmol) of Intermediate b, 0.078 g (0.11 mmol) of dichlorobis(triphenylphosphine)dipalladium, 55 mL of dioxane, and 28 mL of a 0.5 N sodium carbonate aqueous solution were added to a reaction vessel, and the mixture was stirred at a temperature of 90° C. for 8 hours. After the reaction was completed, the resultant mixture was cooled to room temperature and filtered by using celite. An organic layer obtained therefrom was concentrated and purified by column chromatography, thereby completing the preparation of Compound 1-7 (synthesized amount: 2.97 g, yield: 69.9%) (the structure thereof was identified by LC-MS). A measurement of a glass transition temperature (Tg) was performed based on JIS K 7121 by using SII DSC6220 (manufactured by Seiko Instruments Inc.).
(§1) The glass transition temperature (Tg) and solubility of Compounds 1-5, 1-23, 1-24, and 1-79 were measured. In measuring the solubility, xylene was used as a solvent. The glass transition temperature (Tg) and solubility of each compound is written under each compound number.

Data set [2] can be described thus: Measurement of solubility in xylene. It counts as physicochemical. The settings on record: for solubility: result in words; for solubility / Solubility (xylene): solvent xylene. The protocol:
as §1

For `c1ccc(-c2cc(-c3ccccc3)cc(-c3cccc(-c4cc(-c5ccccc5)nc(-c5cccc(-c6cccc7c6c6cc(-c8ccccc8)ccc6n7-c6ccccc6)c5)n4)c3)c2)cc1` [Compound 1-5], the heat resistance entry in data set [1] was “excellent”. Further, in data set [2], the solubility entry is “excellent”.

As to `c1ccc(-c2cc(-c3ccccc3)cc(-c3cccc(-c4nc(-c5ccccc5)nc(-c5cccc(-c6cccc7c6c6cc(-c8ccccc8)ccc6n7-c6ccccc6)c5)n4)c3)c2)cc1` [Compound 1-7], the “Solubility (xylene)” value in data set [2] is above 10 wt %. The “soluble in a hydrocarbon-based solvent” value in data set [2] (toluene or xylene) was “soluble”.

Turning to `c1ccc(-c2cc(-c3ccccc3)cc(-c3cccc(-c4nc(-c5ccccc5)nc(-c5cccc(-c6ccc7c(c6)c6cc(-c8ccccc8)ccc6n7-c6ccccc6)c5)n4)c3)c2)cc1` [Compound 1-79], the heat resistance result in data set [1] is “excellent”. In addition, the solubility entry in data set [2] is listed as “excellent”.

Take `c1ccc(-c2cc(-c3ccccc3)cc(-c3cccc(-n4c5ccccc5c5cc(-c6ccc7c(c6)c6cc(-c8ccccc8)ccc6n7-c6ccccc6)ccc54)c3)c2)cc1` [Compound 6-5]: the “Tg (glass transition temperature)” value in data set [1] (JIS K 7121, SII DSC6220) came out at 156.6 °C. Further, the “Solubility (xylene)” value in data set [2] is above 10 wt %.
